12 compounds from US20240269298A1, “PHOSPHONYL DERIVATIVE, AND COMPOSITION AND PHARMACEUTICAL APPLICATION THEREOF” (XIZANG HAISCO PHARMACEUTICAL CO., LTD., priority 2021, published 2024) can be followed below.

Where two headings read alike, the source gives them in different places. Some results are limits rather than exact numbers.

The subject of one test is A431 (EGFR-WT) cells. The test is described as follows: Inhibitory activity on proliferation of A431 (EGFR-WT) cells (CTG, 72 h). Type of test: cell-based. As to conditions: Homo sapiens, A-431. The protocol:
NCI-H1975 (EGFR-L858R-T790M) and A431 (EGFR-WT) cells were purchased from ATCC and cultured in an incubator at 37° C. with 5% CO2, and the culture mediums were RPMI1640+10% FBS and DMEM+10% FBS, respectively. On the first day, NCI-H1975 (EGFR-L858R-T790M) and A431 (EGFR-WT) cells in the logarithmic phase were collected, and viable cells were counted using an automatic cell analyzer (countstar). The cell suspensions were adjusted with the culture mediums and plated on a 96-well cell culture plate at 1000 cells/well for NCI-H1975 (EGFR-L858R-T790M) cells and at 3000 cells/well for A431 cells. The next day, the culture mediums were aspirated, and 90 μL of fresh culture mediums and 10 μL of the compounds at different concentrations were added to each well, wherein the final concentration of DMSO in each well was 0.1%. The plate was cultured in the incubator at 37° C. with 5% CO2 for 72 hours. After 72 hours of drug treatment, 50 μL of CTG solution (promega, G7572), which was already pre-melted and equilibrated to room temperature, was added to each well, and the mixtures were uniformly mixed for 2 min using a microplate shaker. The plate was placed at room temperature for 10 min, and then […] signal values were measured using a microplate reader (PHERAstar FSX).
Surviving cells % was calculated based on Vsample/Vvehicle control×100%, wherein Vsample was the readout of the drug-treated group, and Vvehicle control was the average value of the vehicle control group. Using the origin 9.2 software and nonlinear regression model, S-shaped dose-survival curves were plotted, and IC50 values were calculated.

Test [1] relates to NCI-H1975 (EGFR-L858R-T790M) cells. The test can be described thus: Inhibitory activity on proliferation of NCI-H1975 (EGFR-L858R-T790M) cells (CTG, 72 h). The format is cell-based. As to conditions: Homo sapiens. The gist of the method:
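IC50 values come from S-shaped dose-survival fits of CTG signal expressed as % of vehicle. Compound exposure lasted 72 h at 37 °C with 0.1% DMSO; seeding was 3000 A431 cells/well in DMEM+10% FBS and 1000 NCI-H1975 cells/well in RPMI1640+10% FBS.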

Setting [2] is: read-out: IC50 (value in brackets).

One may read the IC50 as the concentration needed to halve the response being measured. With `COc1cc(N2CCC(CN3CCCC4(CCN(c5ccc6c(c5)C(=O)N(C5CCC(=O)NC5=O)C6=O)CC4)C3)CC2)c(-c2cnn(C)c2)cc1Nc1ncc(Cl)c(Nc2ccc3nccnc3c2P(C)(C)=O)n1` (centres unmarked) [Compound 1, 5-(2-((1-(4-((5-chloro-4-((5-(dimethylphosphoryl)quinoxalin-6-yl)amino)pyrimidin-2-yl)amino)-5-methoxy-2-(1-methyl-1H-pyrazol-4-yl)phenyl)piperidin-4-yl)methyl)-2,9-diazaspiro[5.5]undecan-9-yl)-2-(2,6-dioxopiperidin-3-yl)isoindoline-1,3-dione], the results for the half-inhibitory concentration (IC50) (in the test with A431 (EGFR-WT) cells; in test [1] (read-out: IC50 (class symbol)); in test [1] (setting [2])) were not below 10 µM, less than 0.1 µM and 0.043 µM, respectively.

Turning to `COc1cc(N2CCC(N3CCN(CC4CCN(c5ccc6c(c5)C(=O)N(C5CCC(=O)NC5=O)C6=O)CC4)CC3)CC2)c(-c2cnn(C)c2)cc1Nc1ncc(Cl)c(Nc2ccc3nccnc3c2P(C)(C)=O)n1` (centres unmarked) [Compound 4, 5-(4-((4-(1-(4-((5-chloro-4-((5-(dimethylphosphoryl)quinoxalin-6-yl)amino)pyrimidin-2-yl)amino)-5-methoxy-2-(1-methyl-1H-pyrazol-4-yl)phenyl)piperidin-4-yl)piperazin-1-yl)methyl)piperidin-1-yl)-2-(2,6-dioxopiperidin-3-yl)isoindoline-1,3-dione], the IC50 in the test on A431 (EGFR-WT) cells was not below 10 µM; in test [1] (read-out: IC50 (class symbol)), less than 0.1 µM; in test [1] (setting [2]) it was 0.021 µM.

`COc1cc(N2CCC(N3CCC(CN4CCN(c5ccc6c(c5)C(=O)N(C5CCC(=O)NC5=O)C6=O)CC4)CC3)CC2)c(C2CC2)cc1Nc1ncc(Br)c(Nc2ccc3nccnc3c2P(C)(C)=O)n1` (centres unmarked) [Compound 24, 5-(4-((1′-(4-((5-bromo-4-((5-(dimethylphosphoryl)quinoxalin-6-yl)amino)pyrimidin-2-yl)amino)-2-cyclopropyl-5-methoxyphenyl)-[1,4′-bipiperidin]-4-yl)methyl)piperazin-1-yl)-2-(2,6-dioxopiperidin-3-yl)isoindoline-1,3-dione]: the IC50 is not below 10 µM in the test on A431 (EGFR-WT) cells, 0.1 to 0.5 µM in test [1] (read-out: IC50 (class symbol)) and 0.163 µM in test [1] (setting [2]).

Turning to `COc1cc(N2CCC(N3CCN(CC4CCN(c5ccc6c(c5)C(=O)N(C5CCC(=O)NC5=O)C6=O)C4)CC3)CC2)c(-c2cnn(C)c2)cc1Nc1ncc(Br)c(Nc2ccc3nccnc3c2P(C)(C)=O)n1` (centres unmarked) [Compound 30, 5-(3-((4-(1-(4-((5-bromo-4-((5-(dimethylphosphoryl)quinoxalin-6-yl)amino)pyrimidin-2-yl)amino)-5-methoxy-2-(1-methyl-1H-pyrazol-4-yl)phenyl)piperidin-4-yl)piperazin-1-yl)methyl)pyrrolidin-1l-yl)-2-(2,6-dioxopiperidin-3-yl)isoindoline-1,3-dione], the IC50 in the test on A431 (EGFR-WT) cells is not below 10 µM; in test [1] (read-out: IC50 (class symbol)), less than 0.1 µM; in test [1] (setting [2]), 0.012 µM.

`COc1cc(N2CCC(N3CCN(CC4CCN(c5ccc6c(c5)C(=O)N(C5CCC(=O)NC5=O)C6=O)C4)CC3)CC2)c(C2CC2)cc1Nc1ncc(Br)c(Nc2ccc3nccnc3c2P(C)(C)=O)n1` (centres unmarked) [Compound 35, 5-(3-((4-(1-(4-((5-bromo-4-((5-(dimethylphosphoryl)quinoxalin-6-yl)amino)pyrimidin-2-yl)amino)-2-cyclopropyl-5-methoxyphenyl)piperidin-4-yl)piperazin-1-yl)methyl)pyrrolidin-1-yl)-2-(2,6-dioxopiperidin-3-yl)isoindoline-1,3-dione]: the IC50 is not below 10 µM with A431 (EGFR-WT) cells, 0.1 to 0.5 µM in test [1] (read-out: IC50 (class symbol)) and 0.114 µM in test [1] (setting [2]).

Regarding `COc1cc(N2CCC(C3CCN(CC4CCN(c5ccc6c(c5)C(=O)N(C5CCC(=O)NC5=O)C6=O)CC4)CC3)CC2)c(-c2cnn(C)c2)cc1Nc1ncc(Br)c(Nc2ccc(-c3ccccc3)cc2P(C)(C)=O)n1` (centres unmarked) [Compound 36, 5-(4-((1′-(4-((5-bromo-4-((3-(dimethylphosphoryl)-[1,1′-biphenyl]-4-yl)amino)pyrimidin-2-yl)amino)-5-methoxy-2-(1-methyl-1H-pyrazol-4-yl)phenyl)-[4,4′-bipiperidin]-1-yl)methyl)piperidin-1-yl)-2-(2,6-dioxopiperidin-3-yl)isoindoline-1,3-dione], the results for the IC50 (in the test with A431 (EGFR-WT) cells; in test [1] (read-out: IC50 (class symbol)); in test [1] (setting [2])) were not below 10 µM, 0.1 to 0.5 µM and 0.165 µM, respectively.

Take `COc1cc(N2CCN(C3CCN(CC4CCN(c5ccc6c(c5)C(=O)N(C5CCC(=O)NC5=O)C6=O)CC4)CC3)CC2)c(-c2cnn(C)c2)cc1Nc1ncc(Cl)c(Nc2ccc(-c3ccccc3)cc2P(C)(C)=O)n1` (centres unmarked) [Compound 40, 5-(4-((4-(4-(4-((5-chloro-4-((3-(dimethylphosphoryl)-[1,1′-biphenyl]-4-yl)amino)pyrimidin-2-yl)amino)-5-methoxy-2-(1-methyl-1H-pyrazol-4-yl)phenyl)piperazin-1-yl)piperidin-1-yl)methyl)piperidin-1-yl)-2-(2,6-dioxopiperidin-3-yl)isoindoline-1,3-dione]: the IC50 was not below 10 µM in the test with A431 (EGFR-WT) cells, less than 0.1 µM in test [1] (read-out: IC50 (class symbol)) and 0.055 µM in test [1] (setting [2]).

For the compound `COc1cc(N2CCC(C3CCN(CC4CCN(c5ccc6c(c5)C(=O)N(C5CCC(=O)NC5=O)C6=O)CC4)CC3)CC2)c(-c2cnn(C)c2)cc1Nc1ncc(Cl)c(Nc2ccc(-c3ccccc3)cc2P(C)(C)=O)n1` (centres unmarked) [Compound 41, 5-(4-((1′-(4-((5-chloro-4-((3-(dimethylphosphoryl)-[1,1′-biphenyl]-4-yl)amino)pyrimidin-2-yl)amino)-5-methoxy-2-(1-methyl-1H-pyrazol-4-yl)phenyl)-[4,4′-bipiperidin]-1-yl)methyl)piperidin-1-yl)-2-(2,6-dioxopiperidin-3-yl)isoindoline-1,3-dione], the figures for the IC50 (with A431 (EGFR-WT) cells; in test [1] (read-out: IC50 (class symbol)); in test [1] (setting [2])) were not below 10 µM, 0.1 to 0.5 µM and 0.353 µM, respectively.

For the compound `COc1cc(N2CCN(C3CCN(CC4CCN(c5ccc6c(c5)C(=O)N(C5CCC(=O)NC5=O)C6=O)CC4)CC3)CC2)c(-c2cnn(C)c2)cc1Nc1ncc(Br)c(Nc2ccc(-c3ccccc3)cc2P(C)(C)=O)n1` (centres unmarked) [Compound 42, 5-(4-((4-(4-(4-((5-bromo-4-((3-(dimethylphosphoryl)-[1,1′-biphenyl]-4-yl)amino)pyrimidin-2-yl)amino)-5-methoxy-2-(1-methyl-1H-pyrazol-4-yl)phenyl)piperazin-1-yl)piperidin-1-yl)methyl)piperidin-1-yl)-2-(2,6-dioxopiperidin-3-yl)isoindoline-1,3-dione], the IC50 in the test on A431 (EGFR-WT) cells is not below 10 µM; in test [1] (read-out: IC50 (class symbol)), less than 0.1 µM; in test [1] (setting [2]), 0.059 µM.

As for `COc1cc(N2CCN(C3CCN(CC4CCN(c5cc6c(cc5F)C(=O)N(C5CCC(=O)NC5=O)C6=O)CC4)CC3)CC2)c(-c2cnn(C)c2)cc1Nc1ncc(Br)c(Nc2ccc(-c3ccccc3)cc2P(C)(C)=O)n1` (centres unmarked) [Compound 46, 5-(4-((4-(4-(4-((5-bromo-4-((3-(dimethylphosphoryl)-[1,1′-biphenyl]-4-yl)amino)pyrimidin-2-yl)amino)-5-methoxy-2-(1-methyl-1H-pyrazol-4-yl)phenyl)piperazin-1-yl)piperidin-1-yl)methyl)piperidin-1-yl)-2-(2,6-dioxopiperidin-3-yl)-6-fluoroisoindoline-1,3-dione], the IC50 in the test with A431 (EGFR-WT) cells is not below 10 µM; in test [1] (read-out: IC50 (class symbol)), less than 0.1 µM; in test [1] (setting [2]) it was 0.071 µM.

On to `COc1cc(N2CCC3(CCN(c4ccc5c(c4)C(=O)N(C4CCC(=O)NC4=O)C5=O)CC3)CC2)c(-c2cnn(C)c2)cc1Nc1ncc(Br)c(Nc2ccc(C3CC3)cc2P(C)(C)=O)n1` (centres unmarked) [Compound 165, 5-(9-(4-((5-bromo-4-((4-cyclopropyl-2-(dimethylphosphoryl)phenyl)amino)pyrimidin-2-yl)amino)-5-methoxy-2-(1-methyl-1H-pyrazol-4-yl)phenyl)-3,9-diazaspiro[5.5]undecan-3-yl)-2-(2,6-dioxopiperidin-3-yl)isoindoline-1,3-dione], for which the IC50 in the test on A431 (EGFR-WT) cells was not below 10 µM.

As for `COc1cc(N2CCN(c3ccc4c(c3)C(=O)N(C3CCC(=O)NC3=O)C4=O)CC2)c(-c2cnn(C)c2)cc1Nc1ncc(Cl)c(Nc2ccc(C3CC3)cc2P(C)(C)=O)n1` (centres unmarked) [Compound 167, 5-(4-(4-((5-chloro-4-((4-cyclopropyl-2-(dimethylphosphoryl)phenyl)amino)pyrimidin-2-yl)amino)-5-methoxy-2-(1-methyl-1H-pyrazol-4-yl)phenyl)piperazin-1-yl)-2-(2,6-dioxopiperidin-3-yl)isoindoline-1,3-dione], the concentration for half-maximal inhibition (IC50) with A431 (EGFR-WT) cells was not below 10 µM.
